In PubChem BioAssay (NCI):
Values joined by “and” are separate entries in the source; they are usually repeats but may differ in a detail not shown here. Equal entries are not always repeated.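 Each compound was tested at five concentrations against cells in 96-well plates for 48 hours. Abbreviation: GI50, concentration required for 50% inhibition of growth. TGI is the concentration that stops growth completely.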

Legend:
Assay in all cases: inhibition of tumour cell growth, NCI panel, 48 h; in the data active = GI50 below about 0.43 µM; inactive = the rest
[1] = system: COLO 205 colon
[2] = system: OVCAR-8 ovarian
[3] = system: HCT-116 colon
[4] = system: SNB-75 CNS
[5] = system: NCI-H460 lung
[6] = system: SK-MEL-5 melanoma
[7] = system: LXFL 529 NSCLC
[8] = system: DMS 273 small cell lung
[9] = system: CCRF-CEM leukemia
[10] = system: DLD-1 colon
[11] = system: SK-MEL-28 melanoma
[12] = system: RXF-631 renal
[13] = system: M14 melanoma
[14] = system: OVCAR-4 ovarian
[15] = system: RXF 393 renal
[16] = system: NCI-H522 lung
[17] = system: HT29 colon
[18] = system: U251 CNS
[19] = system: SR leukemia
[20] = system: HOP-92 NSCLC
[21] = system: SW-620 colon
[22] = system: KM12 colon
[23] = system: ACHN renal
[24] = system: SK-MEL-2 melanoma
[25] = system: NCI-H23 lung
[26] = system: HCT-15 colon
[27] = system: KM20L2 colon
[28] = system: NCI-H226 lung
[29] = system: SF-268 CNS
[30] = system: SN12C renal
[31] = system: MOLT-4 leukemia
[32] = system: DMS 114 small cell lung
[33] = system: A498 renal
[34] = system: SF-295 CNS
[35] = system: UACC-257 melanoma
[36] = system: K-562 leukemia
[37] = system: OVCAR-3 ovarian
[38] = system: HOP-62 NSCLC
[39] = system: SK-OV-3 ovarian
[40] = system: UACC-62 melanoma
[41] = system: M19-MEL melanoma
[42] = system: LOX IMVI melanoma
[43] = system: IGROV1 ovarian
[44] = system: UO-31 renal
[45] = system: 786-0 renal
[46] = system: CAKI-1 renal
[47] = system: TK-10 renal
[48] = system: SF-539 CNS
[49] = system: RPMI-8226 leukemia
[50] = system: HOP-18 NSCLC
[51] = system: HCC-2998 colon
[52] = system: OVCAR-5 ovarian
[53] = system: SNB-78 CNS
[54] = system: A549 NSCLC
[55] = system: EKVX NSCLC
[56] = system: MALME-3M melanoma
[57] = system: HL-60(TB) leukemia
[58] = system: SNB-19 CNS
[59] = system: XF 498 CNS

CC1(C)CC(O)CC(C)(C)N1.CC1(C)CC(O)CC(C)(C)N1.CC1(C)CC(O)CC(C)(C)N1.CC1(C)CC(O)CC(C)(C)N1.Cl.[Ti]
> 100 µM: TGI [1] | TGI [2] | TGI [3] | TGI [4] | TGI [5] | TGI [6] | TGI [7] | TGI [8] | TGI [9] | TGI [10] | TGI [11] | TGI [12] | TGI [13] | TGI [14] | TGI [15] | TGI [16] | TGI [17] | TGI [18] | TGI [19] | TGI [20] | TGI [21] | TGI [22] | TGI [23] | TGI [24] | TGI [25] | TGI [26] | TGI [27] | TGI [28] | TGI [29] | TGI [30] | TGI [31] | TGI [32] | TGI [33] | TGI [34] | TGI [35] | TGI [36] | TGI [37] | TGI [38] | TGI [39] | TGI [40] | TGI [41] | TGI [42] | TGI [43] | TGI [44] | TGI [45] | TGI [46] | TGI [47] | TGI [48] | TGI [49] | TGI [50] | TGI [51] | TGI [52] | TGI [53]
inactive: GI50 [1] > 100 µM | GI50 [2] > 100 µM | GI50 [3] > 100 µM | GI50 [4] > 100 µM | GI50 [5] > 100 µM | GI50 [6] > 100 µM | GI50 [7] > 100 µM | GI50 [8] > 100 µM | GI50 [9] > 100 µM | GI50 [10] > 100 µM | GI50 [11] > 100 µM | GI50 [12] > 100 µM | GI50 [13] > 100 µM | GI50 [14] > 100 µM | GI50 [15] > 100 µM | GI50 [16] > 100 µM | GI50 [17] > 100 µM | GI50 [18] > 100 µM | GI50 [19] > 100 µM | GI50 [20] > 100 µM | GI50 [21] > 100 µM | GI50 [22] > 100 µM | GI50 [23] > 100 µM | GI50 [24] > 100 µM | GI50 [25] > 100 µM | GI50 [26] > 100 µM | GI50 [27] > 100 µM | GI50 [28] > 100 µM | GI50 [29] > 100 µM | GI50 [30] > 100 µM | GI50 [31] > 100 µM | GI50 [32] > 100 µM | GI50 [33] > 100 µM | GI50 [34] > 100 µM | GI50 [35] > 100 µM | GI50 [36] > 100 µM | GI50 [37] > 100 µM | GI50 [38] > 100 µM | GI50 [39] > 100 µM | GI50 [40] > 100 µM | GI50 [41] > 100 µM | GI50 [42] > 100 µM | GI50 [43] > 100 µM | GI50 [44] > 100 µM | GI50 [45] > 100 µM | GI50 [46] > 100 µM | GI50 [47] > 100 µM | GI50 [48] > 100 µM | GI50 [49] > 100 µM | GI50 [50] > 100 µM | GI50 [51] > 100 µM | GI50 [52] > 100 µM | GI50 [53] > 100 µM

CC1CCC2c3c([nH]c4ccccc34)C3C(=O)N(c4ccccc4)C(=O)C3C2C1 (configuration not stated)
92 µM: TGI [38]
95.5 µM and 99.1 µM: TGI [31]
96.4 µM and 161 µM: TGI [28]
28.5 µM and 99.6 µM: TGI [39]
42.2 µM and > 250 µM: TGI [53]
33.7 µM: TGI [15]
inactive: GI50 [2] > 250 µM | GI50 [4] 12.1 µM | GI50 [9] 194 µM | GI50 [54] > 250 µM | GI50 [13] 160 µM | GI50 [18] 37.5 µM | GI50 [19] > 250 µM | GI50 [23] 47.9 µM | GI50 [25] 30.3 µM | GI50 [28] 62.3 µM | GI50 [29] 165 µM | GI50 [31] 44.7 µM | GI50 [34] 66.3 µM | GI50 [36] 54.8 µM | GI50 [37] > 250 µM | GI50 [39] 13.2 µM | GI50 [58] 69.2 µM | GI50 [40] 22.7 µM | GI50 [42] 153 µM | GI50 [43] 38.2 µM | GI50 [44] 117 µM | GI50 [45] 77.6 µM | GI50 [47] 45.5 µM | GI50 [48] 34 µM | GI50 [53] 35.2 µM
97.9 µM and > 250 µM: TGI [29]
56.8 µM: TGI [20]
215 µM: TGI [56]
57 µM and 130 µM: TGI [43]
7.55 µM: TGI [59]
> 250 µM: TGI [2] | TGI [3] | TGI [5] | TGI [7] | TGI [54] | TGI [55] | TGI [10] | TGI [11] | TGI [12] | TGI [13] | TGI [14] | TGI [57] | TGI [16] | TGI [17] | TGI [18] | TGI [19] | TGI [21] | TGI [22] | TGI [25] | TGI [26] | TGI [27] | TGI [30] | TGI [34] | TGI [35] | TGI [37] | TGI [58] | TGI [41] | TGI [42] | TGI [44] | TGI [46] | TGI [51]
40.6 µM and > 250 µM: TGI [45]
82.2 µM and > 250 µM: TGI [40]
69.9 µM: TGI [50]
202 µM: TGI [36]
27.6 µM and > 250 µM: TGI [48]
91.4 µM: TGI [24]
67.5 µM and 181 µM: TGI [47]
224 µM: TGI [23]
42 µM and > 250 µM: TGI [9]
